The OPERA property sets (Mansouri et al. 2018)

Q: Which logP does the source give for `CC(C)OC(=O)CS(=O)c1ccc(Cl)cc1[N+](=O)[O-]` (configuration not stated) here?
A: Its logP is 2.22.

Q: With `COC(=O)CSc1ccc(Cl)cc1[N+](=O)[O-]` as the compound, how does the logP read?
A: Its logP is 2.24.

Q: Which logP does the source give for `COC(=O)CS(=O)c1ccc([N+](=O)[O-])cc1` (configuration not stated) here?
A: The logP was 0.8.

Q: For `CC(C)OC(=O)CSc1ccc(Cl)cc1[N+](=O)[O-]`, which logP is on record?
A: Its logP is 3.

Q: For `CC(C)OC(=O)CSc1ccc([N+](=O)[O-])cc1[N+](=O)[O-]`, which logP is on record?
A: The logP was 2.81.

Q: With `COC(=O)CSc1ccccc1[N+](=O)[O-]` as the compound, how does the logP read?
A: Its logP is 1.88.

Q: With `CC(C)OC(=O)CS(=O)c1ccc([N+](=O)[O-])cc1` (configuration not stated) as the compound, how does the logP read?
A: The logP was 1.64.

Q: For `COC(=O)CS(=O)c1ccc([N+](=O)[O-])cc1[N+](=O)[O-]` (configuration not stated), which logP is on record?
A: The logP was 0.63.

Q: For `COC(=O)CS(=O)c1ccc([N+](=O)[O-])cc1Cl` (configuration not stated), which logP is on record?
A: The logP was 1.35.

Q: For `COC(=O)CSc1ccc([N+](=O)[O-])cc1Cl`, which logP is on record?
A: The logP was 2.26.

Q: Which logP does the source give for `CC(C)OC(=O)CSc1ccc([N+](=O)[O-])cc1Cl` here?
A: Its logP is 3.2.

Q: With `COC(=O)CS(=O)(=O)c1ccc([N+](=O)[O-])cc1Cl` as the compound, how does the logP read?
A: The logP was 1.45.

Q: For `CC(C)OC(=O)CS(=O)(=O)c1ccc([N+](=O)[O-])cc1`, which logP is on record?
A: The logP was 1.8.

Q: With `COC(=O)CS(=O)c1ccccc1[N+](=O)[O-]` (configuration not stated) as the compound, how does the logP read?
A: The logP was 0.74.

Q: Which logP does the source give for `COC(=O)CSc1ccc([N+](=O)[O-])cc1[N+](=O)[O-]` here?
A: Its logP is 2.05.

Q: Which logP does the source give for `CC(C)OC(=O)CS(=O)(=O)c1ccc(Cl)cc1[N+](=O)[O-]` here?
A: The logP was 2.45.

Q: With `CC(C)OC(=O)CS(=O)c1ccccc1[N+](=O)[O-]` (configuration not stated) as the compound, how does the logP read?
A: The logP was 1.59.

Q: For `CC(C)OC(=O)CS(=O)(=O)c1ccc([N+](=O)[O-])cc1Cl`, which logP is on record?
A: Its logP is 2.4.

Q: Which logP does the source give for `CC(C)OC(=O)CS(=O)c1ccc([N+](=O)[O-])cc1[N+](=O)[O-]` (configuration not stated) here?
A: The logP was 1.61.

Q: For `COC(=O)CS(=O)(=O)c1ccc([N+](=O)[O-])cc1`, which logP is on record?
A: The logP was 0.78.

Q: For `CC(C)OC(=O)CS(=O)c1ccc([N+](=O)[O-])cc1Cl` (configuration not stated), which logP is on record?
A: The logP was 2.01.

Q: With `COC(=O)CS(=O)(=O)c1ccc(Cl)cc1[N+](=O)[O-]` as the compound, how does the logP read?
A: Its logP is 1.3.

Q: For `COC(=O)CS(=O)c1ccc(Cl)cc1[N+](=O)[O-]` (configuration not stated), which logP is on record?
A: Its logP is 1.29.

Q: For `CC(C)OC(=O)CS(=O)(=O)c1ccccc1[N+](=O)[O-]`, which logP is on record?
A: The logP was 1.72.

Q: Which logP does the source give for `CC(C)OC(=O)CSc1ccccc1[N+](=O)[O-]` here?
A: Its logP is 2.76.

Q: Which logP does the source give for `COC(=O)CS(=O)(=O)c1ccccc1[N+](=O)[O-]` here?
A: Its logP is 0.78.

Q: For `CC(C)OC(=O)CSc1ccc([N+](=O)[O-])cc1`, which logP is on record?
A: The logP was 2.79.
